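All cell lines were grown in 96-well plates and treated with compound for 48 hours. At the TGI there is no net growth.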
How the values were obtained:
Assay in all cases: inhibition of tumour cell growth, NCI panel, 48 h
[1] = tested on: 786-0 renal
[2] = tested on: A498 renal
[3] = tested on: A549 NSCLC
[4] = tested on: ACHN renal
[5] = tested on: CAKI-1 renal
[6] = tested on: CCRF-CEM leukemia
[7] = tested on: COLO 205 colon
[8] = tested on: DLD-1 colon
[9] = tested on: DMS 114 small cell lung
[10] = tested on: DMS 273 small cell lung
[11] = tested on: EKVX NSCLC
[12] = tested on: HCC-2998 colon
[13] = tested on: HCT-116 colon
[14] = tested on: HCT-15 colon
[15] = tested on: HOP-62 NSCLC
[16] = tested on: HT29 colon
[17] = tested on: IGROV1 ovarian
[18] = tested on: K-562 leukemia
[19] = tested on: KM12 colon
[20] = tested on: KM20L2 colon
[21] = tested on: LOX IMVI melanoma
[22] = tested on: LXFL 529 NSCLC
[23] = tested on: M14 melanoma
[24] = tested on: M19-MEL melanoma
[25] = tested on: MALME-3M melanoma
[26] = tested on: MOLT-4 leukemia
[27] = tested on: NCI-H226 lung
[28] = tested on: NCI-H23 lung
[29] = tested on: NCI-H460 lung
[30] = tested on: NCI-H522 lung
[31] = tested on: OVCAR-3 ovarian
[32] = tested on: OVCAR-4 ovarian
[33] = tested on: OVCAR-5 ovarian
[34] = tested on: OVCAR-8 ovarian
[35] = tested on: RPMI-8226 leukemia
[36] = tested on: RXF 393 renal
[37] = tested on: RXF-631 renal
[38] = tested on: SF-268 CNS
[39] = tested on: SF-295 CNS
[40] = tested on: SF-539 CNS
[41] = tested on: SK-MEL-2 melanoma
[42] = tested on: SK-MEL-28 melanoma
[43] = tested on: SK-MEL-5 melanoma
[44] = tested on: SK-OV-3 ovarian
[45] = tested on: SN12C renal
[46] = tested on: SNB-19 CNS
[47] = tested on: SNB-75 CNS
[48] = tested on: SNB-78 CNS
[49] = tested on: SW-620 colon
[50] = tested on: TK-10 renal
[51] = tested on: U251 CNS
[52] = tested on: UACC-257 melanoma
[53] = tested on: UACC-62 melanoma
[54] = tested on: UO-31 renal
[55] = tested on: HL-60(TB) leukemia
[56] = tested on: HOP-18 NSCLC
[57] = tested on: HOP-92 NSCLC
[58] = tested on: SR leukemia
[59] = tested on: XF 498 CNS

Measured: TGI

O=C1CCCCCCCCCCC(=O)N2CCOCCOCCN1Cc1cccc(n1)C2
> 100 µM: [1] | [2] | [3] | [4] | [5] | [6] | [7] | [8] | [9] | [10] | [11] | [12] | [13] | [14] | [15] | [16] | [17] | [18] | [19] | [20] | [21] | [22] | [23] | [24] | [25] | [26] | [27] | [28] | [29] | [30] | [31] | [32] | [33] | [34] | [35] | [36] | [37] | [38] | [39] | [40] | [41] | [42] | [43] | [44] | [45] | [46] | [47] | [48] | [49] | [50] | [51] | [52] | [53] | [54]

CC1CC(c2ccc([N+](=O)[O-])cc2)=Nc2ccccc2S1 (configuration not stated)
63.6 µM: [26]
48.6 µM: [11]
29.3 µM: [14]
44.2 µM: [4]
> 100 µM: [56] | [15] | [25] | [29] | [34] | [47] | [48]
29.5 µM: [1]
32 µM: [36]
32.9 µM: [40]
27.2 µM: [23]
34.2 µM: [28]
7.21 µM: [35]
39.1 µM: [6]
60.1 µM: [3]
41.7 µM: [10]
20.6 µM: [21]
36.4 µM: [55]
31 µM: [44]
42.4 µM: [43]
28.4 µM: [51]
29.6 µM: [49]
3.56 µM: [13]
38.1 µM: [12]
70.7 µM: [59]
26.7 µM: [24]
26.3 µM: [16]
41.9 µM: [30]
24.9 µM: [58] | [54]
83.5 µM: [5]
46.6 µM: [27]
25.5 µM: [8]
89.7 µM: [57]
32.2 µM: [42]
40.3 µM: [18]
35.4 µM: [17]
36.6 µM: [9] | [20]
43.9 µM: [32]
39.5 µM: [46]
36.1 µM: [2]
35.1 µM: [45]
26 µM: [22]
76.1 µM: [33] | [50]
55.1 µM: [7]
38.9 µM: [38]
28.8 µM: [53]
35.9 µM: [52]
45.3 µM: [39]
25.3 µM: [19]
23.7 µM: [31]

CCOC(=O)C(=O)Nc1ccc(C)c(C)c1
> 93.8 µM: [19]
32.2 µM: [7]
20 µM: [49]
> 56.5 µM: [9]
> 55.4 µM: [14]
> 100 µM: [1] | [2] | [3] | [4] | [5] | [6] | [8] | [10] | [11] | [12] | [13] | [55] | [15] | [16] | [17] | [18] | [20] | [21] | [22] | [23] | [24] | [25] | [26] | [27] | [28] | [29] | [30] | [32] | [33] | [35] | [36] | [37] | [38] | [39] | [40] | [41] | [42] | [43] | [44] | [45] | [46] | [47] | [48] | [50] | [51] | [52] | [53] | [54]

O=C1C2C=CC(n3[nH]c(=O)n(Cc4ccccc4)c3=O)CC2C(=O)N1c1cccc(Cl)c1 (configuration not stated)
> 100 µM: [1] | [2] | [3] | [4] | [5] | [6] | [7] | [8] | [9] | [10] | [11] | [12] | [13] | [14] | [55] | [56] | [15] | [57] | [16] | [17] | [18] | [19] | [20] | [21] | [22] | [23] | [24] | [25] | [27] | [28] | [29] | [30] | [31] | [32] | [33] | [34] | [36] | [38] | [39] | [40] | [41] | [42] | [43] | [44] | [45] | [46] | [47] | [48] | [58] | [49] | [50] | [51] | [52] | [53] | [54] | [59]

CC(CC[C@@H](C)C1CCC2[C@@H]3CC(O)C4CC(O)[C@@H](O)C[C@]4(C)C3CC[C@@]21C)C(C)(C)C (some centres not stated)
> 100 µM: [1] | [2] | [3] | [4] | [5] | [6] | [7] | [8] | [9] | [10] | [11] | [12] | [13] | [14] | [55] | [56] | [15] | [57] | [16] | [17] | [18] | [19] | [20] | [21] | [22] | [23] | [24] | [25] | [26] | [27] | [28] | [29] | [31] | [32] | [33] | [34] | [35] | [36] | [38] | [39] | [40] | [41] | [42] | [43] | [44] | [45] | [46] | [47] | [48] | [58] | [49] | [50] | [51] | [52] | [53] | [54] | [59]

— PubChem BioAssay (NCI)
